Experimental data reported in ChEMBL document CHEMBL1134726, “SAR studies of novel 5-substituted 2-arylindoles as nonpeptidyl GnRH receptor antagonists” (Bioorg Med Chem Lett, 2001).
pIC50: −log10 of the molar value.

The compounds below were run against T1, Gonadotropin-releasing hormone receptor (Rattus norvegicus, UniProt P30969) (assay: Binding affinity to rat Gonadotropin-releasing hormone receptor.).
T1 sequence (P30969 whole entry): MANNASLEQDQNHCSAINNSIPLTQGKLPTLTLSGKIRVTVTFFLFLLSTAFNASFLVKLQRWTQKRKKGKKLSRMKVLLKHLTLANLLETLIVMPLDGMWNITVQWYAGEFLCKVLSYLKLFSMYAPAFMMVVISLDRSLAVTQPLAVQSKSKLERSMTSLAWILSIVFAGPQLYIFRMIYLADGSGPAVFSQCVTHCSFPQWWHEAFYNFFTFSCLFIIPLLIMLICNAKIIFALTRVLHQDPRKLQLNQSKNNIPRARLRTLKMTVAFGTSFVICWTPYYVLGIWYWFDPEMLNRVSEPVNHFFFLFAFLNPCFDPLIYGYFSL

Row | Compound | pIC50
1 | CCCC(=O)N1CCN(C(=O)Oc2ccc3[nH]c(-c4cc(C)cc(C)c4)c(CCNCCCCc4ccc(O)cc4)c3c2)CC1 | 7.52
2 | CNC(=O)Oc1ccc2[nH]c(-c3cc(C)cc(C)c3)c(CCNCCCCc3ccc(O)cc3)c2c1 | 7.52
3 | CCOC(=O)N1CCN(C(=O)Oc2ccc3[nH]c(-c4cc(C)cc(C)c4)c(CCNCCCCc4ccc(O)cc4)c3c2)CC1 | 7.49
4 | CCS(=O)(=O)N1CCN(C(=O)Oc2ccc3[nH]c(-c4cc(C)cc(C)c4)c(CCNCCCCc4ccc(O)cc4)c3c2)CC1 | 8.40
5 | COc1ccc2[nH]c(-c3cc(C)cc(C)c3)c(CCNCCCCc3ccc(O)cc3)c2c1 | 7.40
6 | CCC(=O)N1CCN(C(=O)Oc2ccc3[nH]c(-c4cc(C)cc(C)c4)c(CCNCCCCc4ccc(O)cc4)c3c2)CC1 | 7.82
7 | CCCNC(=O)Oc1ccc2[nH]c(-c3cc(C)cc(C)c3)c(CCNCCCCc3ccc(O)cc3)c2c1 | 7.52
8 | Cc1cc(C)cc(-c2[nH]c3ccc(OC(=O)N4CCN(C)CC4)cc3c2CCNCCCCc2ccc(O)cc2)c1 | 7.60
9 | Cc1cc(C)cc(-c2[nH]c3ccc(OC(=O)N4CCN(S(=O)(=O)C(C)C)CC4)cc3c2CCNCCCCc2ccc(O)cc2)c1 | 8.15
10 | Cc1cc(C)cc(-c2[nH]c3ccc(OC(=O)N4CCN(S(C)(=O)=O)CC4)cc3c2CCNCCCCc2ccc(O)cc2)c1 | 8.22
11 | Cc1cc(C)cc(-c2[nH]c3ccc(OCc4ccccc4)cc3c2CCNCCCCc2ccc(O)cc2)c1 | 7.00
12 | CC(=O)N1CCN(C(=O)Oc2ccc3[nH]c(-c4cc(C)cc(C)c4)c(CCNCCCCc4ccc(O)cc4)c3c2)CC1 | 7.52
13 | Cc1cc(C)cc(-c2[nH]c3ccc(OC(=O)N4CCOCC4)cc3c2CCNCCCCc2ccc(O)cc2)c1 | 7.70
14 | Cc1cc(C)cc(-c2[nH]c3ccc(OC(=O)N4CCN(CC(N)=O)CC4)cc3c2CCNCCCCc2ccc(O)cc2)c1 | 7.57
15 | CCNC(=O)Oc1ccc2[nH]c(-c3cc(C)cc(C)c3)c(CCNCCCCc3ccc(O)cc3)c2c1 | 7.80
16 | Cc1cc(C)cc(-c2[nH]c3ccc(OC(=O)N4CCNCC4)cc3c2CCNCCCCc2ccc(O)cc2)c1 | 7.00
17 | CCCS(=O)(=O)N1CCN(C(=O)Oc2ccc3[nH]c(-c4cc(C)cc(C)c4)c(CCNCCCCc4ccc(O)cc4)c3c2)CC1 | 7.92
18 | Cc1cc(C)cc(-c2[nH]c3ccc(OC(=O)N4CCCCC4)cc3c2CCNCCCCc2ccc(O)cc2)c1 | 7.49
19 | Cc1cc(C)cc(-c2[nH]c3ccc(OC(=O)N(C)C)cc3c2CCNCCCCc2ccc(O)cc2)c1 | 7.52
